The source of these data is patent publication US6953570B2, “Porphyrins with enhanced multi-photon absorption cross-sections for photodynamic therapy” (Montana State University, priority 2001, dated 2005).

Each structure is given as a SMILES string.

The nature of the experiment: Singlet oxygen 1Δg→3Σg luminescence after two-photon excitation of the photosensitizer. Type of experiment: physicochemical. The following applies: air-saturated toluene solution, Ti:sapphire regenerative amplifier output 780 nm. As to the method:
As illustrated in FIG. 4(a), the ^1Δg→^3Σg luminescence spectra of molecular oxygen in an air-saturated toluene solution of compound I after both one- and two-photon excitation were measured. The one-photon excitation is represented by the dashed line and the two-photon excitation is shown by the solid line. Both spectra are normalized to unity. For one photon excitation, second harmonics of a Ti:sapphire regenerative amplifier, 390 nm, with an average power intensity of 0.5 W/cm^2 were used, while for two-photon excitation, the output of a Ti:sapphire regenerative amplifier, 780 nm, with an average power intensity of 15 W/cm^2 was used. In both cases, the laser beam was slightly focused into a 1-cm cell to give a cylindrical irradiated volume of ˜1.5 mm diameter. The singlet oxygen luminescence spectrum was measured with a nitrogen-cooled Ge detector coupled with Jobin-Yvon monochromator and a lock-in amplifier.
FIG. 4(b) graphs the dependence of the ^1Δg→^3Σg luminescence intensity (lΔ) on the average illumination intensity, P, of molecular oxygen in an air-saturated toluene solution of compound I after two-photon excitation. The raw experimental data are shown by black squares, with the best power-law fit, lΔ=aP^n with n=2.1±0.1 shown by the dotted line.

As for `Clc1cccc(Cl)c1-c1c2nc(cc3ccc([nH]3)c(-c3ccc(C=Cc4ccc(N(c5ccccc5)c5ccccc5)cc4)cc3)c3nc(cc4ccc1[nH]4)C=C3)C=C2` [Compound I, 5-[4′″-(diphenylamino)-4″-stilbenyl]-15-[2′,6′-dichlorophenyl]-21H, 23H-porphyrin], the “exponent n of best power-law fit lΔ=aP^n (1Δg→3Σg luminescence intensity lΔ versus average illumination intensity P)” value came out at 2.1±0.1.
